Earlier results as cited in patent EP0127274A2, “Esters of metronidazole and compositions containing them” (THE UPJOHN COMPANY, priority 1983, dated 1984).

Conditions: background statement

For Cc1ncc([N+](=O)[O-])n1CCO [metronidazole, 1-(O-hydroxyethyl)-2-methyl-5-nitroimidazole], the solubility in water is given as “approximately 10 mg/ml”.
